Reference: patent publication US4914086A, “Method for treating African human and veterinary trypanosomiases” (priority 1987, dated 1990)
“Also recorded” adds a separate entry of the source.

Key:
[1] = system: mammalian cells; settings: cited from earlier work
[2] = system: mouse L cells; settings: cited from earlier work
[3] = in vivo
Procedure: Swiss-Webster (25-30 g) mice were used throughout. In the EATRO 110 model, groups of 100 mice were infected (10^5 trypanosomes/mouse) and the infection was allowed to develop 24 hours before commencing therapy. Animals were divided into groups of 5 before treatment. Cured animals survived >30 days beyond deaths of controls. All compounds were administered by i.p. injection.

[4] = system: VA-13 human cells; settings: cited from earlier work
[5] = system: T. B. gambiense; settings: cited from earlier work
[6] = system: African trypanosomes; settings: previous studies; cited from earlier work
[7] = system: Trypanosoma brucei gambiense; settings: bone marrow tissue culture system; cited from earlier work
[8] = system: Trypanosoma brucei rhodesiense; settings: bone marrow tissue culture system; cited from earlier work
[9] = system: T. b. brucei TREU 667; experiment: CNS model, T. b. brucei TREU 667 infection in mice (Table 4); format: in vivo, Trypanosoma brucei brucei (in Swiss-Webster mice); settings: for efficacy in CNS model in words: TREU 667
Excerpt: T. b. brucei EATRO 110 isolate was maintained as described (Bacchi, C. J., H. C. Nathan, S. H. Hutner, P. P. McCann and A. Sjoerdsma; Polyamine metabolism: a potential chemotherapeutic target in trypanosomes. Science 210: 332-334, 1980). It produces an acute, rapidly fatal parasitemia which is lethal to mice 3-5 days after inoculation. Two T. B. brucei strains, TREU 667 and LUMP 1001 developed by Jennings and coworkers (Jennings, F. W., D. D. Whitelaw and G. M. Urquhart; The relationship between duration of infection with Trypanosoma brucei in mice and the efficacy of chemotherapy. Parasitology 75: 143-153, 1977/Jennings, F. W. and G. D. Gray; Relapsed parasitemia following chemotherapy of chronic T. brucei infections in mice and its relation to cerebral trypanosomes; Contr. Microbiol. Immunol. 7 147-154, 1983) were used as CNS models. Both produce infections which are refractory to Berenil® (diminazene aceturate) and develop within 21 days after inoculation. They are not usually fatal until >40 days after inoculation. LUMP 1001 causes a more virulent CNS infection than TREU 667, and is regarded as more difficult to cure (Jennings, F. W. and G. D. Gray. Relapsed parasitemia following chemotherapy of chronic T. brucei infections in mice and its relation to cerebral trypanosomes. Contr. Microbiol. Immunol. 7 147-154, 1983).
The models for […] nervous system infections used TREU 667 and LUMP 1001 strains which were stored frozen and passaged once in rats before infection of mice. Maintenance and use of these screens were as described (Clarkson, A. B. Jr., C. J. Bacchi, G. H. Mellon, H. C. Nathan, P. P. McCann and A. Sjoerdsma. Efficacy of DFMO+blemoycin in a mouse model of central nervous system African trypanosomiasis. Proc. Natl. Acad. Sci. USA. 80: 5729-5733, 1983/Clarkson, A. B. Jr., E. J. Biene, C. J. Bacchi, P. P. McCann, S. H. Hutner and A. Sjoerdsma. New drug combination for experimental late stage African trypanosomiasis: DFMO with suramin. Am. J. Trop. Med. Hyg. 33: 1073-1077, 1984/Dube, D. K., G. Mpimbaza, A. C. Allison, E. Lederer and L. Rovis. Antitrypanosomal activity of sinefungin, Am. J. Trop. Med. Hyg. 32: 31-33, 1983/Fish, W. R., J. J. Marr, R. L. Berens, D. L. Looker, D. J. Nelson, S. LaFon and A. E. Balber. Inosine analogs as chemotherapeutic agents for African trypanosomes: metabolism in trypanosomes and efficacy in tissue culture. Anti-microb. Ag. Chemother. 27: 33-36, 1985/Clazer, R. I., and L. S. Lloyd. Effects of 8-azaadenosine and formycin on cell lethality and the synthesis and methylation of nucleic acids in human colon carcinoma cells in culture. Biochem. Pharmacol. 31: 3207-3214, 1982/Bacchi, C. J., H. C. Nathan, A. B. Clarkson, Jr., E. J. Bienen, A. J. Bitonti, P. P. McCann and A. Sjoerdsma. Activity of the ornithine decarboxylase inhibitors DL-α-difluoromethylornithine and monofluormethyldehydroornithine methylester alone and in combination with suramin against Trypanosoma brucei brucei central nervous system models, Am. J. Trop. Med. Hyg. (in press)). Briefly, groups of 100-120 mice were infected and the infections allowed to develop until day 21, when the animals were separated into groups of 10 and therapy commenced. Controls were treated with Berenil (40 mg/kg) on day 21. These always relapsed 40-70 days after treatment. Parasitemia was followed by examining tail vein blood smears once weekly. Animals which had relapsed were removed from cages. TREU 667 infections were followed >225 days after inoculation and LUMP 1001 were followed >280 days, as determined by the relapse pattern in previous work (Bacchi, C. J., H. C. Nathan, A. B. Clarkson, Jr., E. J. Bienen, A. J. Bitonti, P. P. McCann and A. Sjoerdsma. Activity of the ornithine decarboxylase inhibitors DL-α-difluoromethylornithine and monofluormethyldehydroornithine methylester alone and in combination with suramin against Trypanosoma brucei brucei central nervous system models. Am. J. Trop. Med. Hyg. (in press)). […]

[10] = system: T. cruzi; settings: previous studies; cited from earlier work
[11] = system: Leishmania spp; settings: previous studies; cited from earlier work
[12] = system: Pneumocystis Carinii; settings: tissue culture; cited from earlier work
[13] = system: T. b. rhodesiense; settings: cited from earlier work
[14] = system: mouse L cells; settings: cited from earlier work; remark: listed apart in the source
[15] = system: bloodstream trypomastigotes; settings: in culture; cited from earlier work
[16] = system: T. congolense; settings: cited from earlier work

## O=c1[nH]cnc2c([C@@H]3O[C@H](CO)[C@@H](O)[C@H]3O)c[nH]c12 [9-DINO, 7-beta-D-ribofuranosyl-4-oxo-3H, 5H-pyrrolo (3,2-d) pyrimidine]
[1]
  cleavage into ribose and purine analog moieties: cannot be cleaved into ribose and purine analog moieties
[2]
  toxicity in words: neither toxic for mouse L cells
[3]; mouse, in vivo
  dose at which toxicity appeared: 400 mg/kg
[3]; prolonged (i.e. 1 week) dose regimens
  toxicity in words: no evidence of toxicity
[4]
  metabolism to adenine nucleotide analogs in words: not metabolized to adenine nucleotide analogs
[5]
  metabolism in words: metabolized to 9-deaza-ATP
[6]
  activity in words: more active than allopurinol, thipurinol, and their respective nucleosides
[7]
  activity in words: active at very low concentrations
[8]
  activity in words: active at very low concentrations
[9]; 5 mg/kg i.p., 7 days
  # Cured/Total: 0/5
  % Cured: 0%
  Avg. Day of Relapse (Range): 41 days
[9]; 10 mg/kg i.p., 7 days
  # Cured/Total: 0/5
  % Cured: 0%
  Avg. Day of Relapse (Range): 41 days
[9]; 25 mg/kg i.p., 7 days
  # Cured/Total: 1/5
  % Cured: 20%
  Avg. Day of Relapse (Range): 60 (41-135) Day
[9]; 100 mg/kg i.p., 7 days
  # Cured/Total: 0/20
  % Cured: 0%
  Avg. Day of Relapse (Range): 49 (35-58) Day
[9]; 250 mg/kg i.p., 7 days
  # Cured/Total: 3/10
  % Cured: 30%
  Avg. Day of Relapse (Range): 68 (45-86) Day
[9]
  efficacy in CNS model in words: did not cure CNS infections
[10]
  activity in words: more active than allopurinol, thipurinol, and their respective nucleosides
[11]
  activity in words: more active than allopurinol, thipurinol, and their respective nucleosides
[12]
  activity in words: active
[13]
  metabolism in words: metabolized to 9-deaza-ATP
[14]
  metabolism in words: nor metabolized to adenosine nucleotide analogues by these cells; also recorded: not metabolized to adenine nucleotide analogs
[15]
  metabolism in words: converted to toxic adenosine nucleotide analogues

## Nc1ncnc2c1ncn2[C@@H]1O[C@H](C[C@@H](N)CC[C@H](N)C(=O)O)[C@@H](O)[C@H]1O [Sinefungin, 6,9-Diamino-1-(6-amino-9H-purin-9-yl)-1,5,6,7,8,9-hexadeoxy-beta-D-ribo-decofuranuronic acid]
[9]; 2.5 mg/kg i.p., 4 days
  # Cured/Total: 0/18
  % Cured: 0%
  Avg. Day of Relapse (Range): 39 (35-56) Day
[9]; 5 mg/kg i.p., 4 days
  # Cured/Total: 0/10
  % Cured: 0%
  Avg. Day of Relapse (Range): 41 (35-46) Day
[9]; 10 mg/kg i.p., 3 days
  # Cured/Total: 0/10
  % Cured: 0%
  Avg. Day of Relapse (Range): 38 (35-46) Day
[9]; 10 mg/kg i.p., 7 days
  # Cured/Total: 6/10
  % Cured: 60%
  Avg. Day of Relapse (Range): 124 (35-209) Day
[9]
  efficacy in CNS model in words: did not produce complete cures
[16]; 9 injections 2 h apart
  total dose to which infection responded: 0.45 mg
[16]; multiple daily doses, Dube et al.
  cure in words: cured
